Source: US8114986B2, “Analogous compounds of 6-thioguanosine triphosphate, their use in medical fields and processes for their preparation” (Giuliani International Limited, priority 2005, dated 2012)

Key:
[1] = Solubility in water; format: physicochemical
[2] = tested on: human CD4+ T Lymphocytes; assay: Induction of apoptosis in CD3/CD28 costimulated T lymphocytes, annexin V / propidium iodide FACS; format: cell-based; settings: for induction of apoptosis: 5 μM added at day 0, CD3/CD28 costimulated T lymphocytes; for induction of apoptosis / induction of apoptosis compared with azathioprine or 6-mercaptopurine mediated induction: 3, 4 or 5 days, FIGS. 2-4; for induction of apoptosis compared with azathioprine or 6-mercaptopurine mediated induction: 5 μM; for apoptosis induction: FIGS. 5 and 6, at least three experimental data sets, primary T cells of different donors
Protocol: Human peripheral blood mononuclear cells (PBMC) from 4 buffycoats were isolated using Ficoll-Hypaque gradients. PBMC were further purified using CD4 monoclonal antibodies attached to immunomagnetic microbeads according to the protocol provided by the manufacturer (Miltenyi Biotec). […] Azathioprine, 6-Mercaptopurine, V1, V2, V3, V4 or V5 were added to the T cell cultures at day 0 at a final concentration of 5 μM. To determine induction of apoptosis in these T lymphocytes, cells were analyzed by FACS. For FACS analysis, apoptotic cells were detected by staining with annexin V and propidium iodide using the Annexin V FITC Apoptosis Detection Kit I (PharMingen). In brief, T cells were washed twice in PBS, and the pellet was resuspended in annexin V binding buffer (PharMingen) at a concentration of 10^6 cells per milliliter. Annexin V FITC and propidium iodide were added (5 μl of each per 10^5 cells), Samples were gently mixed and incubated for 15 minutes at room temperature in the dark before FACS analysis.
• Annexin-positive, propidium iodide-negative cells (black bars) present the rate of early apoptotic cells. Annexin-positive, propidium iodide-positive cells (white bars) present late apoptotic or necrotic cells. • Induction of apoptosis=(Rate of apoptotic cells after indicated treatment)−(Rate of apoptosis of untreated cells) • V1, V2 and V3 were tested in 4 independent experiments. V4 and V5 were tested in 2 independent experiments.

[3] = tested on: caspase-3/7 in T cells; assay: Caspase-Glo 3/7 Assay in stimulated CD4+ T cells; format: cell-based, human; settings: day three of culture; untreated cells = 100%; three experiments; FIG. 8
Protocol: FIG. 8: Caspase-graph: Luminescence value of untreated cells was defined as 100% Caspase activity. Due to their specific luminescence value the caspase activity of treated cells were calculated accordingly. Induction of Caspase activityx[%]=Caspase activityx[%]−Caspase activityuntreated[%]. Means±SEM (Standart Error of the Mean=Standard deviation/radical(n)) of three different experiments are presented.
In addition, an alternative method was performed for screening of group-D derivatives (FIG. 8). It was decided to analyse the activity of caspase-3/7 in T cells, which were treated with group-D derivatives. As compared to AnnexinV/PI staining this new method might have some advantages: • It is an easier protocol. Therefore there are fewer possibilities for individual errors. • Increased activity of caspase-3 is very specific for apoptosis. Therefore this method is very sensitive for the detection of apoptosis. There is no interfering influence of necrotic cells. • The measurement is done in duplicate. In this way there is an internal control.
The Caspase-Glo 3/7 Assay (Promega™) was used. This assay is based on a caspase dependent luminescent signal. Protocol: CD4^+ T cells were isolated from human blood by magnetic beads (Dynal). T lymphocytes were stimulated in complete RPMI-1640 medium (RPMI-1640+10% FCS+100 U/ml Penicillin/Streptomycin+3 mM L-Glutamin) for 3 days with coated antibodies to CD3 (0.04 μg/ml) and soluble CD28 antibodies (PharMingen™; 1 μg/ml) plus IL-2 (R & D Systems™, Wiesbaden, Germany; 40 U/ml) in 96-well plates. Cells were treated with different group-D derivatives or were left untreated. At day three of culture Caspase-3/7 Assay was performed. 25 μl of Caspase-Glo 3/7 reagent was added to each well. Probes were mixed gently for 2 minutes and incubated at room temperature for 30 minutes. Finally 100 μl of each probe were transferred to a white walled 96-well luminometer plate and analysed in a plate-reading luminometer. The added reagent contains a specific substrate of caspase-3 and caspase-7. Cleavage of this substrate by activated caspase-3 results in luciferase reaction. Luminescence is proportional to the amount of caspase activity present (FIG. 8)

[4] = target: Rac1 (Homo sapiens, UniProt P63000); settings: cited from earlier work

Molecule | induction of apoptosis [2] | induction of caspase activity [3] | also measured
CC(=O)OC[C@H]1O[C@@H](n2cnc3c(S)nc(NCCCCCCNC(C)=S)nc32)C(OC(C)=O)C1OC(C)=O (some centres unmarked) [V4, 2′,3′,5′-Triacetyl-N-2-(6″-thioacetamide-hexyl)-6-Thioguanosine] | not able to induce apoptosis | – | solubility in water [1]: not soluble in water
2′,3′-EDA-6-Thio-GTP [05B-0] | able to induce apoptosis | very effective | induction of apoptosis compared with azathioprine or 6-mercaptopurine mediated induction [2]: more pronounced and appeared earlier; apoptosis induction [2]: strongest candidate drug for apoptosis induction
TAMRA-EDA-6-Thio-GTP [V5] | able to induce apoptosis | – | induction of apoptosis compared with azathioprine or 6-mercaptopurine mediated induction [2]: more pronounced and appeared earlier
Cn1ccc(NC(=O)[C@@H]2OC3C(COP(=O)(O)OP(=O)(O)OP(=O)(O)O)OC(n4cnc5c(=S)[nH]c(N)nc54)C3O2)n1 (some centres unmarked) [06D-13] | – | promising | –
CC(=O)NCCCCCCNc1nc(O)c2ncn([C@@H]3O[C@H](COC(C)=O)C(OC(C)=O)C3OC(C)=O)c2n1 (some centres unmarked) [V3, 2′,3′,5′,o-Triacetyl-N-2-(Acetyl-6″-aminohexyl)-guanosine] | not able to induce apoptosis | – | solubility in water [1]: not soluble in water
Nc1nc2c(ncn2[C@@H]2O[C@H](COP(=O)(O)OP(=O)(O)OP(=O)(O)O)[C@@H](O)[C@H]2O)c(=S)[nH]1 [6-Thio-GTP, 6-thioguanosine triphosphate] | – | able to induce caspase activity | apoptosis induction [2]: on average was not able to induce apoptosis; affinity to Rac1, fold less in comparison with GTP [4]: 20 fold
Aspartate-2,3′-EDA-6-Thio-GTP [05B-1] | – | less effective than 05B-0 | –
NCCCCCCNc1nc2c(ncn2[C@@H]2O[C@H](CO)[C@@H](O)[C@H]2O)c(=O)[nH]1 [V2, N-2-(6″-Aminohexyl)-guanosine] | not able to induce apoptosis | – | –
Cc1cc(CNC(=O)[C@@H]2OC3C(COP(=O)(O)OP(=O)(O)OP(=O)(O)O)OC(n4cnc5c(=S)[nH]c(N)nc54)C3O2)nn1C (some centres unmarked) [06D-14] | – | promising | –
